From ChEMBL document CHEMBL3860032, “Identification of noncovalent proteasome inhibitors with high selectivity for chymotrypsin-like activity by a multistep structure-based virtual screening” (Eur J Med Chem, 2016)
pIC50, pKi: −log10 of the molar value. Activity calls are given as the source filed them. The rule behind the calls is not given here. Non-standard residues stand in square brackets, D forms with d. Residues, ends and D or L forms follow the SMILES beside them. ξ: configuration not given here. *: point of attachment. ξY = NC(Cc1ccc(O)cc1)C(=O)O; Nva = CCC[CH](N)C(=O)O; Cbz = O=C(OCc1ccccc1)*; ξI = CCC(C)C(N)C(=O)O; ξL = CC(C)CC(N)C(=O)O; ξT = CC(O)C(N)C(=O)O; NHNH2 = NN*

What was measured:
[1] = biological target: T1, Proteasome Macropain subunit MB1 (Homo sapiens, UniProt P28074); assay: Competitive inhibition of chymotrypsin-like activity of human 20S proteasome using Suc-Leu-Leu-Val-Tyr-AMC as substrate measured for 10 mins by fluorescence assay
T1 sequence (P28074 whole entry): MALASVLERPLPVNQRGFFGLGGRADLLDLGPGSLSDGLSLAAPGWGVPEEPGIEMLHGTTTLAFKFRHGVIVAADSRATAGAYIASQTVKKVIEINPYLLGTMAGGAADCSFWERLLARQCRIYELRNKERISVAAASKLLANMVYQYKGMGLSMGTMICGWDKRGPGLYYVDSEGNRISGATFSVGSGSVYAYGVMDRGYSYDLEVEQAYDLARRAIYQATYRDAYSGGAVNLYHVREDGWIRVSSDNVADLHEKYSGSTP

[2] = Cytotoxicity against human MM1R cells assessed as growth inhibition after 24 hrs by MTT assay; assay type: functional, cell-based; details: MM.1R
[3] = Cytotoxicity against human MM1R cells assessed as residual vitality at 100 uM after 24 hrs by MTT assay relative to control; assay type: functional
MM1R [4] = assay: Inhibition of proteasome activity in human MM1R cells assessed as increase in total ubiquitin levels at 20 uM after 24 hrs by Western blot method; assay type: cell-based
[5] = biological target: T2, Proteasome Macropain subunit MB1 (Homo sapiens) (UniProt P28074); assay: Inhibition of chymotrypsin-like activity of human 20S proteasome at 50 uM using Suc-Leu-Leu-Val-Tyr-AMC as substrate measured for 10 mins by fluorescence assay relative to control
T2 sequence (whole entry): T1 sequence (P28074 whole entry)

[6] = biological target: Proteasome Macropain subunit (Homo sapiens) (UniProt P49721); assay: Inhibition of trypsin-like activity of human 20S proteasome at 50 uM using Boc-Leu-Arg-Arg-AMC as substrate measured for 10 mins by fluorescence assay relative to control
Sequence of Proteasome Macropain subunit (Homo sapiens) (P49721 whole entry): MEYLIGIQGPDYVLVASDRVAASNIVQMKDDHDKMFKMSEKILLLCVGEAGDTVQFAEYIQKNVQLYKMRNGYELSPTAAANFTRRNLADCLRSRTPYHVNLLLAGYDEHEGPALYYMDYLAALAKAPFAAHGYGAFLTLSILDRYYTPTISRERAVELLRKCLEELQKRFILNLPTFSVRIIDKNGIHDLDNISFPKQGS

[7] = biological target: T3, Proteasome component C5 (Homo sapiens) (UniProt P20618); assay: Inhibition of post-glutamyl peptide hydrolyzing activity of human 20S proteasome at 50 uM using Cbz-Leu-Leu-Glu-AMC as substrate measured for 10 mins by fluorescence assay relative to control
T3 sequence (whole entry): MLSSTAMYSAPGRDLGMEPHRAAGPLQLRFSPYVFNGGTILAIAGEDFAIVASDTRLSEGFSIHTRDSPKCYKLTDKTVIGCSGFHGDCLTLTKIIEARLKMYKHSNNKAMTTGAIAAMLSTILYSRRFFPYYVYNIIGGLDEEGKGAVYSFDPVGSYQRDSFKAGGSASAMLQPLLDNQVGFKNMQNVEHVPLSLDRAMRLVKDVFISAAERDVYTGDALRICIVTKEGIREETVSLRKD

[8] = biological target: T2, Proteasome Macropain subunit MB1 (Homo sapiens); assay: Time-dependent inhibition of chymotrypsin-like activity of human 20S proteasome using Suc-Leu-Leu-Val-Tyr-AMC as substrate at 10 to 100 uM by fluorescence assay
MM1R [9] = assay: Inhibition of proteasome activity in human MM1R cells assessed as increase in total ubiquitin levels at 10 uM after 24 hrs by Western blot method; assay type: cell-based

inhibition [5]	inhibition [6]	SMILES	also measured
21%		CC(C)[C@H](NC(=O)[C@H](Cc1ccc(O)cc1)NC(=O)OCc1ccccc1)C(=O)O	
33%		CNC(Cc1ccc(OCc2ccccc2)cc1)C(=O)NC(CO)CC(C)C (centres undefined)	
46%		COC(=O)C(CC(C)C)NC(=O)C(Cc1ccc(O)cc1)N(C(=O)OCc1ccccc1)C(=O)OCc1ccccc1 (centres undefined)	
24%		C[C@H](NC(=O)OCc1ccccc1)C(=O)N[C@@H](Cc1ccccc1)C(N)=O	
24%		COC(=O)[C@H](C)NC(=O)[C@H](Cc1ccccc1)NC(=O)[C@H](C)NC(=O)OCc1ccccc1 (Cbz-Ala-Phe-Ala-OMe)	inhibition [7]: 24%
17%		CC(C)C[C@H](NC(=O)OCc1ccccc1)C(=O)N[C@@H](Cc1ccc(O)cc1)C(N)=O (Cbz-Leu-Tyr-NH2)	
22%		COC(=O)[C@H](C)NC(=O)[C@H](CC(C)C)NC(=O)[C@H](Cc1ccccc1)NC(=O)OCc1ccccc1 (Cbz-Phe-Leu-Ala-OMe)	
	18%	COC(=O)[C@H](Cc1ccccc1)NC(=O)[C@H](Cc1ccccc1)NC(=O)[C@H](Cc1ccccc1)NC(=O)OCc1ccccc1 (Cbz-Phe-Phe-Phe-OMe)	
	29%	CC(C)CC(NC(=O)C(CO)NC(=O)OCc1ccccc1)C(=O)NC(Cc1ccc(O)cc1)C(N)=O (stereo not drawn) (Cbz-Ser-Leu-Tyr-NH2; configuration not given here)	pKi [1]: 5.66; pIC50 [2]: 4.55; Activity [3]: 4%; increase in total ubiquitin levels (qualitative) (MM1R [4]): Active
	26%	CC(C)C[C@H](NC(=O)[C@H](CO)NC(=O)OCc1ccccc1)C(=O)N[C@@H](Cc1ccc(O)cc1)C(=O)NN (Cbz-Ser-Leu-Tyr-NHNH2)	inhibition [7]: 23%; pKi [1]: 4.96; TDI [8]: Active; pIC50 [2]: 4.53; Activity [3]: 4%
	22%	COC(=O)[C@H](Cc1ccc(O)cc1)NC(=O)[C@H](CC(C)C)NC(=O)[C@H](CO)NC(=O)OCc1ccccc1 (Cbz-Ser-Leu-Tyr-OMe)	pKi [1]: 5.33; TDI [8]: Active; pIC50 [2]: 4.65; Activity [3]: 4%; increase in total ubiquitin levels (qualitative) (MM1R [4]): Active
11%	23%	CC(C)[C@H](NC(=O)[C@H](Cc1ccc(O)cc1)NC(=O)OCc1ccccc1)C(N)=O (Cbz-Tyr-Val-NH2)	
15%	32%	COC(=O)[C@H](CC(C)C)NC(=O)[C@H](CC(N)=O)NC(=O)[C@@H](NC(=O)OCc1ccccc1)C(C)C (Cbz-Val-Asn-Leu-OMe)	
18%	33%	CCC[C@H](NC(=O)OCc1ccccc1)C(=O)N[C@@H](Cc1ccc(O)cc1)C(N)=O (Cbz-[Nva]-Tyr-NH2)	
17%		CCCC(NC(=O)OCc1ccccc1)C(=O)NC(Cc1ccc(O)cc1)C(N)=O (centres undefined) (Cbz-[Nva]-Tyr-NH2; configuration not given here)	
34%	11%	CCC(C)C(NC(=O)OCc1ccccc1)C(=O)N[C@@H](Cc1ccc(O)cc1)C(=O)O (some centres undefined) (Cbz-[ξI]-Tyr-OH)	
8%		CC(C)CC(NC(=O)OCc1ccccc1)C(=O)N[C@@H](Cc1ccc(O)cc1)C(=O)O (some centres undefined) (Cbz-[ξL]-Tyr-OH)	
7%		O=C(NC(Cc1ccc(O)cc1)C(=O)N[C@@H](Cc1ccccc1)C(=O)O)OCc1ccccc1 (some centres undefined) (Cbz-[ξY]-Phe-OH)	

The remaining lines, values behind:

SMILES	inhibition [5]	inhibition [6]	also measured
CN/C(=N\CCSCc1ccc2ccccc2n1)NS(=O)(=O)c1ccccc1			pKi [1]: 5.67; pIC50 [2]: 4.74; Activity [3]: 4%; increase in total ubiquitin levels (qualitative) (MM1R [4]): Active
CC(=O)NC(Cc1ccccc1)C(=O)Nc1ccc(C)cc1 (centres undefined)	43%		
CC(=O)NC(Cc1ccccc1)C(=O)Nc1ccc(S(N)(=O)=O)cc1 (centres undefined)	34%		
CC(C)(C)OC(=O)Cn1ncn(NC(=O)Cc2ccccc2)c1=O	49%		
CC(C)(C)Oc1ccc(C[C@@H](NC(=O)OCC2c3ccccc3-c3ccccc32)C(=O)O)cc1	59%		
CC(C)C[C@H](NC(=O)c1cnc2ccccc2n1)C(=O)O	34%		
CC(Cc1ccccc1)NC(=O)C(O)C(O)C(O)C(O)CCO (centres undefined)	36%	6%	
CC(NC(=O)OCc1ccccc1)C(=O)NC(Cc1ccc(O)cc1)C(=O)OCc1ccccc1 (centres undefined)	22%		
CCOC(=O)C(NC(=O)Cc1ccccc1)C(=O)OCC	49%		
CCOC(=O)c1ccc(NC(=O)CSc2nc3ccccc3o2)cc1	13%		
NC(=O)C(NC(=O)c1ccccc1)SCc1ccccc1 (centres undefined)	21%	3%	
NC(=O)C[C@H](NC(=O)OCC1c2ccccc2-c2ccccc21)C(=O)O	33%		
NC(CCC(=O)OCc1ccccc1)C(=O)OCc1ccccc1 (centres undefined)	34%		
NC(Cc1c[nH]c2ccccc12)C(=O)OCc1ccccc1 (centres undefined)	54%		
NS(=O)(=O)c1ccc(NC(=O)/C=C/c2ccccc2)cc1	33%	11%	
O=C(CC(=O)c1cccnc1)NC(=O)c1ccccc1	43%		
O=C(CNC(=O)c1ccccc1)OC(C(=O)O)c1ccc(F)cc1 (centres undefined)	12%		
O=C(NCc1ccccc1)C(O)C(O)C(O)C(O)CO (centres undefined)	15%	2%	
O=C(Nc1ccc2nc(O)cc(C(=O)O)c2c1)Oc1ccccc1	48%	74%	
O=C(Nc1ccccc1C(=O)NCC1CC1)c1cccs1	60%		
O=C(O)CCCC(=O)NC1CC2c3ccccc3C1c1ccccc12 (centres undefined)	31%	7%	
O=C(O)[C@H](Cc1ccc(O)cc1)NS(=O)(=O)Cc1ccccc1	60%		
O=C(O)c1ccc(NCn2c(=S)[nH]c3ccccc32)cc1O	54%	1%	
OCC(Oc1ccccc1)C(O)C(O)C(CO)Oc1ccccc1 (centres undefined)	5%		
CC(O)C(C=O)NC(=O)CNC(=O)OCc1ccccc1 (stereo not drawn) (Cbz-Gly-[ξT]-aldehyde)	23%		
COC(=O)[C@H](CO)NC(=O)[C@H](CC(C)C)NC(=O)[C@H](CC(C)C)NC(=O)OCc1ccccc1 (Cbz-Leu-Leu-Ser-OMe)			pKi [1]: 6.38; TDI [8]: Active; pIC50 [2]: 4.79; Activity [3]: 4%; increase in total ubiquitin levels (qualitative) (MM1R [4]): Active
COC(=O)[C@H](CC(C)C)NC(=O)[C@H](Cc1ccccc1)NC(=O)[C@H](CO)NC(=O)OCc1ccccc1 (Cbz-Ser-Phe-Leu-OMe)			pKi [1]: 4.99; TDI [8]: Active; pIC50 [2]: 4.75; Activity [3]: 4%; increase in total ubiquitin levels (qualitative) (MM1R [4]): Active
CC(C)C[C@@H](C=O)NC(=O)[C@H](CC(C)C)NC(=O)[C@H](CC(C)C)NC(=O)OCc1ccccc1 [MG-132] (Cbz-Leu-Leu-Leu-aldehyde)			pIC50 [2]: 4.91; inhibition (MM1R [9]): Active
